In this series the test system is Nodal. Description: Nodal expression in C8161 cells (Western blot, real time RT-PCR). To be noted: anti-Nodal Morpholino. The series is classed as cell-based, human. How it is done: A determination of the effects of H9 CMTX on Nodal expression in metastatic melanoma (C8161) and breast carcinoma (MDA-MB-231) cells was undertaken. […] Exposure to H9 CMTX similarly abrogates Nodal mRNA expression in the melanoma and breast carcinoma cells (FIG. 9C).
Protein lysates were prepared and quantified as previously described in Hess et al., 2001, Cancer Res. 61:3250-3255. Equal amounts of protein were separated by SDS-polyacrylamide gel electrophoresis under reducing conditions, and the resolved proteins were transferred onto Immobilon-P membranes (Millipore Corp., Bedford, Mass.). Membranes were blocked in 1% TBS, 0.1% Tween 20 (TBS-T) and 5% dry milk powder or 3% gelatin (for Nodal Westerns). Blots were incubated with anti-Nodal or anti-Lefty antibodies (Polyclonal rabbit anti-Nodal (H-110) 1:500 Santa Cruz Biotechnology, Santa Cruz, Calif.; Polyclonal goat anti-Lefty 1:500 R&D Systems, Minneapolis, Minn.), washed in TBS-T, and incubated with the appropriate horseradish peroxidase-labeled secondary antibody. Secondary antibodies were detected by enhanced chemiluminescence (Super Signal; Pierce, Rockford, Ill.) and exposure to autoradiography film (Molecular Technologies, St Louis, Mo.). Nodal protein was detected as two major bands at ˜48 and ˜35 kDa representing precursor and pro-Nodal respectively. Nodal often appeared as multiple bands, likely due to degradation of protein modifications. All experiments were done at least three times.
The derivation and phenotypic characteristics of the human melanoma cell lines have been previously described. Seftor, et. al., 2002, Clin. Experim. Metastas. 19:233-246; Seftor, et. al., 2005 Cancer Res. 65:10164-10169. The melanoma cell lines are maintained in RPMI 1640 medium (Invitrogen) supplemented with 10% fetal bovine serum (FBS, Gemini Bioproducts) and 0.1% gentamycin sulfate with the exception of C81-61 cells which are maintained in Ham's FIO medium supplemented with 15% FBS, 1X Mito+ (BD Bioscience) and gentamycin sulfate. […] The cultures are determined to be free of mycoplasma contamination using a PCR-based assay (Roche). […]

On to “MO^Nodal: FITC-conjugated anti-sense Morpholino to Nodal, 5′-AAGCAGCACCTCCAGCCCTTATATC-3′ [SEQ ID NO: 20] (all phosphorodiamidate morpholino (PMO); FITC conjugated, position not given here)”, for which the Nodal expression entry was “down-regulation of Nodal”.

Source of the values: US8106004B2, “Methods of inhibiting tumor cell aggressiveness using the microenvironment of human embryonic stem cells” (Children's Memorial Hospital, priority 2006, dated 2012).
